Reference: patent US20230175066A1, “ANALYSIS/DIAGNOSIS METHOD UTILIZING RNA MODIFICATION” (OSAKA UNIVERSITY, priority 2018, published 2023)

Assays:
[1] = tested on: DLD-1 cell strain, 5-FU resistant strain, FTD resistant strain; design: methylation on microRNA, FTD resistant strain / miRNA methylation, FTD resistant strain: unit not given here; conditions: for methylation on microRNA, FTD parental strain / methylation on microRNA, FTD resistant strain: RIP sequencing; for methylation on microRNA, FTD parental strain: DLD-1, FTD parental strain; for methylation on microRNA, FTD resistant strain: DLD-1 FTD resistant strain; for miRNA methylation, FTD parental strain / miRNA methylation, FTD resistant strain: miRNAs that decrease post-surgery; for Rate of change, FTD (fold) / Rate of change, FTD resistance (fold): FTD resistant versus parental strain
Method: For an original DLD-1 cell strain and each resistant strain (5-FU resistant strain and FTD resistant strain), RNA methylation analysis in accordance with the protocol for RIP sequencing described above and microarray or mRNA expression analysis similar to the qRT-PCR of Example 2-2 was performed. RIP sequencing and RNA expression information based primary component analysis (two dimensional projection using a component resulting in maximum dispersion) was performed. The results are represented as mean ± standard deviation (SD) based on three independent experiments. The statistical significance of the results was evaluated by pairwise T-TEST using R version 3.4.3 (2017-11-30) on Microsoft Excel® software (Microsoft Campus, Redmond, WA, USA). P value < 0.05 was considered statistically significant. As a result, wild-type strain and each resistant strain was clearly distinguished. […] Total RNA was purified in accordance with the protocol for Trizol (Invitrogen) from the original DLD-1 cell strain and each resistant strain (5-FU resistant strain and FTD resistant strain), and then RNA methylation analysis was performed according to the protocol for RIP sequencing described above. Ribo-Zero rRNA Removal Kit (Illumina) was used for the removal of rNRAs.

[2] = tested on: trifluridine resistant strain of cancer cell strain DLD-1; test: IC50 for trifluridine in the trifluridine resistant strain prepared from DLD-1; type: cell-based; conditions: Homo sapiens; DLD-1 after maintenance culture for 6 months or more in the presence of trifluridine (about 10 mg/mL)
Method: The cancer cell strain DLD-1 obtained from a cell bank such as ATCC or RIKEN was subjected to maintenance culture for 6 months or more in the presence of trifluridine (FTD) (Aldrich-Sigma) (about 10 mg/mL). The maintenance culture was subcultured about twice a week to maintain 60 to 80% confluence at 37° C. in a serum 10% added DMEM medium on a plastic dish.

| Molecule | methylation on microRNA, 5-FU parental strain [1] | methylation on microRNA, 5-FU resistant strain [1] | methylation on microRNA, FTD parental strain [1] | methylation on microRNA, FTD resistant strain [1] | IC50 [2] | Rate of change 5-FU (fold) [1] | miRNA methylation, 5-FU parental strain [1] | miRNA methylation, 5-FU resistant strain [1] | miRNA methylation, FTD parental strain [1] | miRNA methylation, FTD resistant strain [1] | Rate of change, FTD (fold) [1] | Rate of change, 5-FU resistance (fold) [1] | Rate of change, FTD resistance (fold) [1] |
| --- | --- | --- | --- | --- | --- | --- | --- | --- | --- | --- | --- | --- | --- |
| miR-492 (AGGACCUGCGGGACAAGAUUCUU; chemistry not fully specified; listed as Homo sapiens) | 0 | 0 | 0 | 0 |  |  |  |  |  |  |  |  |  |
| O=c1[nH]c(=O)n([C@H]2C[C@H](O)[C@@H](CO)O2)cc1C(F)(F)F [trifluridine] |  |  |  |  | 300 µM |  |  |  |  |  |  |  |  |
| miR-4435 (AUGGCCAGAGCUCACACAGAGG; chemistry not fully specified; listed as Homo sapiens) |  |  |  |  |  | 2.38 fold | 28 | 14 | 46 | 100 | 1.41 fold |  |  |
| miR-3131 (UCGAGGACUGGUGGAAGGGCCUU; chemistry not fully specified; listed as Homo sapiens) | 9 | 3 | 1 | 10 |  |  |  |  |  |  |  | (0.33) fold | (10.00) fold |
| miR-378d (ACUGGACUUGGAGUCAGAAA; chemistry not fully specified; listed as Homo sapiens) | 144 | 30 | 80 | 63 |  |  |  |  |  |  |  | 1.54 fold | 0.36 fold |
| miR-4754 (AUGCGGACCUGGGUUAGCGGAGU; chemistry not fully specified; listed as Homo sapiens) | 3 | 4 | 4 | 0 |  |  |  |  |  |  |  | (1.33) fold | 0.00 fold |
| miR-378e (ACUGGACUUGGAGUCAGGA; chemistry not fully specified; listed as Homo sapiens) | 11 | 2 | 3 | 6 |  |  |  |  |  |  |  | 1.64 fold | 0.86 fold |
| miR-4467 (UGGCGGCGGUAGUUAUGGGCUU; chemistry not fully specified; listed as Homo sapiens) |  |  |  |  |  | (1.00) fold | 6 | 6 | 1 | 12 | 8.00 fold |  |  |
| miR-378h (ACUGGACUUGGUGUCAGAUGG; chemistry not fully specified; listed as Homo sapiens) | 1 | 0 | 0 | 0 |  |  |  |  |  |  |  | 0.00 fold |  |
| miR-378f (ACUGGACUUGGAGCCAGAAG; chemistry not fully specified; listed as Homo sapiens) | 3 | 1 | 2 | 1 |  |  |  |  |  |  |  | 0.67 fold | (0.50) fold |
| miR-3690 (ACCUGGACCCAGCGUAGACAAAG; chemistry not fully specified; listed as Homo sapiens) | 0 | 0 | 1 | 0 |  |  |  |  |  |  |  |  | 0.00 fold |
| miR-378i (ACUGGACUAGGAGUCAGAAGG; chemistry not fully specified; listed as Homo sapiens) | 18 | 1 | 6 | 3 |  |  |  |  |  |  |  | 0.50 fold | 0.33 fold |
| miR-3122 (GUUGGGACAAGAGGACGGUCUU; chemistry not fully specified; listed as Homo sapiens) | 0 | 2 | 0 | 0 |  |  |  |  |  |  |  |  |  |
